Measured values as given in patent publication US20240025903A1, “Bicyclic Compounds and Uses Thereof for the Treatment of Diseases” (Athira Pharma, Inc., priority 2020, published 2024).
Where two headings read alike, the source gives them in different places.

How the values were obtained:
[1] = test system: HepG2 cells; experiment: Cytotoxicity assay (LDH release); assay type: cell-based; settings: 48 hours, 0.1 to 100 μM
Description: This experiment was designed to obtain a preliminary assessment of cytotoxicity.
HepG2 cells were plated in 96-well cell culture plates and allowed to attach overnight at 37° C., 5% CO2 in EMEM+10% FBS. Treatments were made in complete media (EMEM+10% FBS) and included a dilution series of test compounds from 0.1 to 100 μM. Known cytotoxin cerivastatin was used as a positive assay control and prepared at a final concentration of 0.5 μM.
Growth media was replaced with treatment media (EMEM+10% FBS containing test compound dissolved in DMSO) and cells were incubated with test compounds for 48 hours. At the end of the incubation period, supernatant media from each well was transferred to a new plate and LDH assay working solution was added. LDH assay solution undergoes a colorimetric reaction in proportion to the amount of lactate dehydrogenase (an intracellular protein that was only found in the media in the presence of lysed cells) in the media. Color reaction was quantified by measurement of absorbance at a wavelength of 490 nm.
The signal range of the assay was determined by no manipulation in a negative control treatment and full lysis of all cells in a lysis control sample. Compounds that increase the level of cytotoxicity more than 20% above negative control samples were considered cytotoxic in this assay.

[2] = test system: MDCK cells; experiment: Cell scattering behavior assay; assay type: cell-based; set-up: key: − indicates that the compound failed to significantly promote cell scattering behavior; + indicates maximum potency at or above 100 nM; ++ indicates maximum potency at or above 10 nM; +++ indicates maximum potency at or above 1 nM; ++++ indicates maximum potency at or above 0.1 nM; settings: 5 ng/mL HGF, 24 hours, normalized particle count vs HGF alone
Method in brief: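 MDCK cells starved 2 h in serum-free DMEM, then treated 24 h at 37 °C with compounds plus 5 ng/mL HGF. Cells were ethanol-fixed, WGA488-stained and imaged. Scattering was scored as particle count normalized to stained area, with activity taken as a statistical increase in normalized particle count over HGF alone.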

[3] = In vivo tissue distribution; set-up: species or system Sprague-dawley rats; settings: rat
Description: The rate of distribution to target tissues is an important feature of therapeutic molecules. Tissue distribution of exemplary compounds was performed in mixed-sex Sprague-dawley rats. Test compounds were delivered via tail vein injection (IV) and tissues were collected at Tmax (10 minutes post administration). Animals were deeply anesthetized with isoflurane and whole blood was collected from the right atrium and processed by centrifugation to produce plasma. Animals were then fully perfused with PBS administered to the left ventricle to prevent blood contamination of tissues.
Tissues were collected and homogenized, and compound content in the target tissue was quantified by LC-MS/MS. Tissue distribution rates were determined by dividing the tissue concentration of compound by the plasma concentration and multiplying by 100.

[4] = Non-specific protein binding (rapid equilibrium dialysis); assay type: in vitro ADME, Sprague-Dawley rats; settings: both sexes, Sprague-Dawley, RED device, 4-hour incubation at 37° C.
Description: Plasma and tissue exposures of exemplary compounds were scaled by their non-specific affinity for protein binding in target tissues or fluids to determine the fraction of compound available for interaction with the target. Non-specific binding was determined in blood plasma and brain homogenate collected from mixed-sex Sprague-Dawley rats.
Known concentrations of test compounds were mixed with plasma or brain homogenate and incubated in the donor chamber of a rapid equilibrium dialysis (RED) device with empty PBS buffer in the receiving chamber. After a 4-hour incubation at 37° C. in an orbital shaking incubator, compound in each chamber was quantified by LC-MS/MS. The unbound fraction (fu,tissue) was calculated using the following formula:
[formula] • where: • fu,tissue is the unbound fraction in the tissue; • fu,homogenate is the ratio of concentration in the buffer chamber to concentration in the sample chamber; and • D is the dilution factor used to produce the sample.

[5] = Oral availability calculation; assay type: in vivo, Sprague-Dawley rats; settings: both sexes, Sprague-Dawley, plasma; rat, dose corrected AUC PO / dose corrected AUC IV x 100
Description: Oral bioavailability is critical to developing small molecule therapeutics for oral administration. Calculations of oral bioavailability (% F) are accomplished by comparing in vivo pharmacokinetic data (Example B7) using IV dosing as the maximum possible exposure and determining the exposure rate after PO administration. In these studies, dose corrected AUC from PO administration was divided by dose corrected AUC from IV administration and multiplied by 100 to yield the % F. Results are shown in Table 9.

[6] = rat blood plasma, read-out: Unbound Fraction Plasma
[7] = rat brain homogenate, read-out: Unbound Fraction Brain

Compound | fraction unbound at 4 h [4, 6] | fraction unbound at 4 h [4, 7] | bioavailability [5] | Cytotoxicity [1] | Potency (cell scattering) [2] | Tissue Distribution (% Plasma exposure at 10 min post IV dose) Brain [3] | Tissue Distribution (% Plasma exposure at 10 min post IV dose) Cerebellum [3] | Tissue Distribution (% Plasma exposure at 10 min post IV dose) Cortex [3] | Tissue Distribution (% Plasma exposure at 10 min post IV dose) Hippocampus [3] | Tissue Distribution (% Plasma exposure at 10 min post IV dose) Sciatic Nerve [3] | Tissue Distribution (% Plasma exposure at 10 min post IV dose) Muscle [3]
CCCCN1CC2N(C(=O)c3ccc(OC(F)F)cc3)CCC(=O)N2C(C)C1=O (stereo not shown) [Compound 17] |  |  |  | ++++ (++++ indicates non-toxic at 100 μM) | − |  |  |  |  |  | 
CC1C(=O)N(CCC2CCCC2)CC2N(C(=O)c3ccc(C(F)(F)F)cc3)CCC(=O)N12 (stereo not shown) [Compound 19] |  |  |  | ++++ (++++ indicates non-toxic at 100 μM) | +++ (+++ indicates maximum potency at or above 1 nM) |  |  |  |  |  | 
CCC(C)CN1CC2N(C(=O)c3ccc(O)cc3)CCC(=O)N2[C@@H](C)C1=O (stereo partly shown) [Compound 8a] |  |  |  | ++++ (++++ indicates non-toxic at 100 μM) | +++ (+++ indicates maximum potency at or above 1 nM) |  |  |  |  |  | 
CC1C(=O)N(CCC2CCC2)CC2N(C(=O)c3ccc(C(F)(F)F)cc3)CCC(=O)N12 (stereo not shown) [Compound 20] | 0.1 to 0.5 | 0.5 to 0.9 | > 50% | ++++ (++++ indicates non-toxic at 100 μM) | +++ (+++ indicates maximum potency at or above 1 nM) | ++++ (++++ indicates distribution above 70%) | ++++ (++++ indicates distribution above 70%) | ++++ (++++ indicates distribution above 70%) | +++ (+++ indicates distribution between 40 and 69%) | ++++ (++++ indicates distribution above 70%) | 
CCC(C)CN1CC2N(C(=O)c3ccc(F)cc3)CCC(=O)N2C(C)C1=O (stereo not shown) [Compound 11, 1-(4-fluorobenzoyl)-6-methyl-8-(2-methylbutyl)hexahydro-4H-pyrazino[1,2-a]pyrimidine-4,7(6H)-dione] | < 0.1 | 0.1 to 0.5 | 25 to 50% | ++++ (++++ indicates non-toxic at 100 μM) | ++ (++ indicates maximum potency at or above 10 nM) | ++ (++ indicates distribution between 5 and 39%) | + (+ indicates distribution between 0.05 and 5%) | + (+ indicates distribution between 0.05 and 5%) | + (+ indicates distribution between 0.05 and 5%) | ++ (++ indicates distribution between 5 and 39%) | 
CCC(C)CN1CC2N(C(=O)c3ccc(C(F)(F)F)c(Cl)c3)CCC(=O)N2C(C)C1=O (stereo not shown) [Compound 12, 1-(3-chloro-4-(trifluoromethyl)benzoyl)-6-methyl-8-(2-methylbutyl)hexahydro-4H-pyrazino[1,2-a]pyrimidine-4,7(6H)-dione] | 0.1 to 0.5 | 0.1 to 0.5 | 25 to 50% | ++++ (++++ indicates non-toxic at 100 μM) | ++ (++ indicates maximum potency at or above 10 nM) | ++ (++ indicates distribution between 5 and 39%) | ++ (++ indicates distribution between 5 and 39%) | ++ (++ indicates distribution between 5 and 39%) | ++ (++ indicates distribution between 5 and 39%) | +++ (+++ indicates distribution between 40 and 69%) | 
CC1C(=O)N(CC2CCC2)CC2N(C(=O)c3ccc(OC(F)F)cc3)CCC(=O)N12 (stereo not shown) [Compound 14] | 0.1 to 0.5 | > 0.9 | > 50% | ++++ (++++ indicates non-toxic at 100 μM) |  | ++ (++ indicates distribution between 5 and 39%) | ++ (++ indicates distribution between 5 and 39%) | ++ (++ indicates distribution between 5 and 39%) | ++ (++ indicates distribution between 5 and 39%) | ++ (++ indicates distribution between 5 and 39%) | 

Continued, in another order:

fraction unbound at 4 h [4, 6] | fraction unbound at 4 h [4, 7] | bioavailability [5] | Compound | Cytotoxicity [1] | Potency (cell scattering) [2] | Tissue Distribution (% Plasma exposure at 10 min post IV dose) Brain [3] | Tissue Distribution (% Plasma exposure at 10 min post IV dose) Cerebellum [3] | Tissue Distribution (% Plasma exposure at 10 min post IV dose) Cortex [3] | Tissue Distribution (% Plasma exposure at 10 min post IV dose) Hippocampus [3] | Tissue Distribution (% Plasma exposure at 10 min post IV dose) Sciatic Nerve [3] | Tissue Distribution (% Plasma exposure at 10 min post IV dose) Muscle [3]
< 0.1 | < 0.1 | 1 to 25% | CCC(C)CN1CC2N(Cc3ccc(C(F)(F)F)cc3)CCC(=O)N2[C@@H](C)C1=O (stereo partly shown) [Compound 5a] | ++++ (++++ indicates non-toxic at 100 μM) | ++++ (++++ indicates maximum potency at or above 0.1 nM) | ++++ (++++ indicates distribution above 70%) | ++++ (++++ indicates distribution above 70%) | ++++ (++++ indicates distribution above 70%) | ++++ (++++ indicates distribution above 70%) |  | 
0.5 to 0.9 | 0.1 to 0.5 | 25 to 50% | CCC(C)CN1CC2N(C(=O)c3ccc(OC(F)F)cc3)CCC(=O)N2[C@@H](C)C1=O (stereo partly shown) [Compound 2a] | ++++ (++++ indicates non-toxic at 100 μM) | + (+ indicates maximum potency at or above 100 nM) | ++ (++ indicates distribution between 5 and 39%) | + (+ indicates distribution between 0.05 and 5%) | ++ (++ indicates distribution between 5 and 39%) | ++ (++ indicates distribution between 5 and 39%) | ++++ (++++ indicates distribution above 70%) | ++++ (++++ indicates distribution above 70%)
> 0.9 | 0.5 to 0.9 | < 1% | CCC(C)CN1CC2N(Cc3ccc(O)nc3)CCC(=O)N2[C@@H](C)C1=O (stereo partly shown) [Compound 7a] | ++++ (++++ indicates non-toxic at 100 μM) | ++ (++ indicates maximum potency at or above 10 nM) | + (+ indicates distribution between 0.05 and 5%) | + (+ indicates distribution between 0.05 and 5%) | + (+ indicates distribution between 0.05 and 5%) | + (+ indicates distribution between 0.05 and 5%) | ++++ (++++ indicates distribution above 70%) | ++ (++ indicates distribution between 5 and 39%)
